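96-well plates; 48 h exposure; 5 concentrations. Endpoints by linear interpolation between flanking doses. Not reached: highest tested concentration assigned. At the GI50, growth is halved. TGI is the concentration that stops growth completely.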 Some results are limits rather than exact numbers.

Our source for the GI50 and TGI values is PubChem BioAssay (NCI).

Test systems include DU-145 prostate; HOP-62 NSCLC; IGROV1 ovarian; KM12 colon; MOLT-4 leukemia; NCI-H460 lung; SF-268 CNS; SF-295 CNS; SNB-75 CNS; TK-10 renal.
What all share (assay): NCI tumour cell line growth inhibition, 48 h

As for `C/C(=C\c1ccn(-c2ccc(N)cc2F)n1)[C@@H]1C[C@@H]2O[C@]2(C)CCC[C@H](C)[C@H](O)[C@@H](C)C(=O)C(C)(C)[C@@H](O)CC(=O)O1`, the GI50 with DU-145 prostate was 0.024 µM; in the experiment with HOP-62 NSCLC, 0.0384 µM; with IGROV1 ovarian it was 0.0448 µM; with KM12 colon, 0.0156 µM; with MOLT-4 leukemia, 0.0286 µM; in the experiment on NCI-H460 lung, 0.0197 µM. In addition, the GI50 with SF-268 CNS is 0.0822 µM; in the experiment on SF-295 CNS it was 0.0576 µM; in the experiment on SNB-75 CNS it was 0.00766 µM; with TK-10 renal it was 0.0939 µM. The TGI in the experiment on DU-145 prostate was 0.285 µM; in the experiment on HOP-62 NSCLC it was above 50 µM; in the experiment on IGROV1 ovarian, above 50 µM; with KM12 colon, above 50 µM; in the experiment with MOLT-4 leukemia it was above 21.8 µM; in the experiment with NCI-H460 lung, above 50 µM. In addition, the TGI in the experiment on SF-268 CNS is above 50 µM; in the experiment with SF-295 CNS it was above 50 µM; in the experiment on SNB-75 CNS, 0.206 µM; in the experiment with TK-10 renal it was above 50 µM.
Take `COc1cc(N2CCC(N3CCN(C)CC3)CC2)ccc1Nc1ncc(Cl)c(Nc2ccccc2S(=O)(=O)C(C)C)n1`: the GI50 with DU-145 prostate is 1.46 µM; with HOP-62 NSCLC, 0.414 µM; with IGROV1 ovarian, 1.39 µM; with KM12 colon, 0.352 µM; with MOLT-4 leukemia, 0.809 µM; with NCI-H460 lung, 0.604 µM. The GI50 in the experiment with SF-268 CNS was 0.813 µM; in the experiment on SF-295 CNS it was 1.8 µM; in the experiment with SNB-75 CNS, 0.919 µM; with TK-10 renal, 0.79 µM. Besides, the TGI is 7.88 µM in the experiment on DU-145 prostate; 7.98 µM in the experiment with HOP-62 NSCLC; 9.2 µM in the experiment on IGROV1 ovarian; 3.48 µM in the experiment with KM12 colon; 5.71 µM in the experiment with MOLT-4 leukemia; 5.11 µM in the experiment with NCI-H460 lung. Also, the TGI in the experiment on SF-268 CNS turned out to be 2.44 µM; in the experiment on SF-295 CNS, 10.3 µM; in the experiment with SNB-75 CNS, 2.17 µM; with TK-10 renal, 2.43 µM.
With `CCN(CC)CC[n+]1cc2cc(OC)c(OC)cc2c2ccc3cc4c(cc3c21)OCO4`, the GI50 in the experiment with DU-145 prostate was 0.337 µM; in the experiment on HOP-62 NSCLC it was 0.354 µM; in the experiment with IGROV1 ovarian, 0.649 µM; in the experiment on KM12 colon, 0.515 µM; with MOLT-4 leukemia, 0.37 µM; with NCI-H460 lung, 0.288 µM. For the same molecule, the GI50 was 0.386 µM in the experiment on SF-268 CNS, 0.429 µM with SF-295 CNS, 0.64 µM in the experiment with SNB-75 CNS and 1.81 µM in the experiment with TK-10 renal. Also, the TGI was 1.96 µM with DU-145 prostate; 1.93 µM in the experiment with HOP-62 NSCLC; 2.67 µM in the experiment on IGROV1 ovarian; 2.46 µM in the experiment with KM12 colon; 4.64 µM in the experiment with MOLT-4 leukemia; 1.04 µM in the experiment with NCI-H460 lung. Further, the TGI in the experiment with SF-268 CNS turned out to be 2.71 µM; in the experiment with SF-295 CNS it was 2.36 µM; in the experiment on SNB-75 CNS, 2.56 µM; in the experiment on TK-10 renal it was 5.28 µM.
As to `O=C(O)CCSC(=S)Nc1ccc([N+](=O)[O-])cc1`, the TGI was above 100 µM with DU-145 prostate; above 100 µM in the experiment with HOP-62 NSCLC; above 100 µM in the experiment with IGROV1 ovarian; above 100 µM in the experiment with KM12 colon; above 68 µM with MOLT-4 leukemia; above 100 µM with NCI-H460 lung. Further, the TGI in the experiment on SF-268 CNS, in the experiment with SF-295 CNS, with SNB-75 CNS and in the experiment on TK-10 renal was above 100 µM each time.
For `Cc1ccc(C2=NN(c3ccc(S(N)(=O)=O)cc3)C(c3cn(-c4ccccc4)nc3-c3ccccc3)C2)cc1` (stereo not given), the GI50 in the experiment on DU-145 prostate is 67.9 µM; with HOP-62 NSCLC, above 100 µM; with IGROV1 ovarian it was 28.3 µM; in the experiment with KM12 colon, 4.27 µM; with MOLT-4 leukemia, 3.72 µM; in the experiment with NCI-H460 lung, 4.22 µM. Further, the GI50 in the experiment with SF-268 CNS was 25.7 µM; in the experiment with SF-295 CNS, 73.3 µM; with SNB-75 CNS, 80.5 µM; with TK-10 renal it was 71.2 µM. The TGI in the experiment with DU-145 prostate, in the experiment on HOP-62 NSCLC, with IGROV1 ovarian, in the experiment on KM12 colon, with MOLT-4 leukemia and with NCI-H460 lung was above 100 µM throughout. The TGI in the experiment with SF-268 CNS, with SF-295 CNS, in the experiment on SNB-75 CNS and with TK-10 renal was above 100 µM throughout.
Turning to `C=CCSSc1ncnc2c1ncn2C1OC(CO)C(O)C1O` (stereo not given), the GI50 in the experiment with DU-145 prostate is 1.24 µM; with HOP-62 NSCLC it was 1.78 µM; with IGROV1 ovarian it was 0.0257 µM; with KM12 colon, 3.24 µM; in the experiment on MOLT-4 leukemia it was 1.54 µM; with NCI-H460 lung, 4.49 µM. Moreover, the GI50 with SF-268 CNS is 5.05 µM; in the experiment with SF-295 CNS, 2.58 µM; in the experiment with SNB-75 CNS, 0.731 µM; with TK-10 renal, 0.598 µM. Besides, the TGI in the experiment on DU-145 prostate was above 48.1 µM; in the experiment on HOP-62 NSCLC, above 100 µM; in the experiment with IGROV1 ovarian, 0.644 µM; with KM12 colon it was above 39.9 µM; in the experiment with MOLT-4 leukemia, 6.75 µM; in the experiment with NCI-H460 lung it was above 100 µM. For the same molecule, the TGI in the experiment on SF-268 CNS was above 58.1 µM; in the experiment with SF-295 CNS, above 100 µM; in the experiment on SNB-75 CNS, 96.9 µM; in the experiment with TK-10 renal it was above 42.3 µM.
On to `O=[N+]([O-])c1cc2c(c([N+](=O)[O-])c1)Nc1ccccc1O2`, for which the GI50 with DU-145 prostate is 7.32 µM; in the experiment with HOP-62 NSCLC it was 16.3 µM; with IGROV1 ovarian, 7.58 µM; in the experiment on KM12 colon, 6.68 µM; in the experiment with MOLT-4 leukemia it was 6.22 µM; in the experiment with NCI-H460 lung it was 4.62 µM. Also, the GI50 with SF-268 CNS is 6.53 µM; with SF-295 CNS, 4.7 µM; in the experiment with SNB-75 CNS, 29.8 µM; in the experiment on TK-10 renal, 9.98 µM. For the same molecule, the TGI is above 100 µM in the experiment on DU-145 prostate; 44.4 µM in the experiment with HOP-62 NSCLC; above 100 µM in the experiment on IGROV1 ovarian; above 100 µM with KM12 colon; above 100 µM with MOLT-4 leukemia; 83.1 µM in the experiment with NCI-H460 lung. Moreover, the TGI in the experiment with SF-268 CNS was above 100 µM; in the experiment on SF-295 CNS, 29.1 µM; with SNB-75 CNS, above 100 µM; in the experiment with TK-10 renal, 46.7 µM.
Take `Cc1cc(N(CCOS(C)(=O)=O)CCOS(C)(=O)=O)ccc1C=Nc1ccc(-c2csc(-c3ccc(Br)cc3)n2)cc1`: the TGI in the experiment with DU-145 prostate was 57.4 µM; with HOP-62 NSCLC it was 26.4 µM; in the experiment with IGROV1 ovarian, 22.5 µM; in the experiment with KM12 colon, 21.6 µM; in the experiment with MOLT-4 leukemia, above 69.5 µM; in the experiment on NCI-H460 lung it was 12.7 µM. For the same molecule, the TGI in the experiment on SF-268 CNS is above 80.2 µM; in the experiment with SF-295 CNS, 50.5 µM; in the experiment with SNB-75 CNS, 23.8 µM; in the experiment on TK-10 renal it was 36.9 µM.
In the case of `Cc1cc2nc(C(Cl)Cl)nc(-c3ccccc3)n2n1`, the GI50 was 1.95 µM with DU-145 prostate; 2.48 µM with HOP-62 NSCLC; 5.24 µM in the experiment with IGROV1 ovarian; 1.78 µM in the experiment on KM12 colon; 5.67 µM in the experiment on MOLT-4 leukemia; 1.97 µM in the experiment with NCI-H460 lung. The GI50 with SF-268 CNS was 4.76 µM; in the experiment with SF-295 CNS, 3.48 µM; in the experiment with SNB-75 CNS it was 1.75 µM; in the experiment on TK-10 renal, 4.73 µM. In addition, the TGI was 5.41 µM in the experiment with DU-145 prostate; 8.64 µM with HOP-62 NSCLC; 35.1 µM in the experiment on IGROV1 ovarian; 4.86 µM in the experiment with KM12 colon; above 100 µM with MOLT-4 leukemia; 5.13 µM with NCI-H460 lung. Besides, the TGI in the experiment with SF-268 CNS amounted to 39.4 µM; with SF-295 CNS it was 15.9 µM; in the experiment with SNB-75 CNS it was 12.9 µM; in the experiment on TK-10 renal, 51.2 µM.
Consider `C[C@@H]1OCC2(CCN(c3cnc(Sc4ccnc(N)c4Cl)c(N)n3)CC2)[C@@H]1N`, for which the GI50 in the experiment on DU-145 prostate is above 67.8 µM; in the experiment on HOP-62 NSCLC, 14.2 µM; in the experiment on IGROV1 ovarian it was 0.801 µM; in the experiment on KM12 colon, 5.46 µM; in the experiment on MOLT-4 leukemia, above 90.9 µM; in the experiment with NCI-H460 lung, above 100 µM. For the same molecule, the GI50 is 27.7 µM with SF-268 CNS, above 100 µM with SF-295 CNS, 15.1 µM with SNB-75 CNS and 0.253 µM with TK-10 renal. For the same molecule, the TGI in the experiment on DU-145 prostate, in the experiment with HOP-62 NSCLC, in the experiment with IGROV1 ovarian, in the experiment with KM12 colon, with MOLT-4 leukemia and in the experiment on NCI-H460 lung was above 100 µM each time. Besides, the TGI in the experiment on SF-268 CNS, with SF-295 CNS, in the experiment with SNB-75 CNS and in the experiment with TK-10 renal was above 100 µM throughout.
For the molecule `CCCCCC/C=C1\CCC(CN(C)C)C1=O` (stereo not given), the TGI in the experiment with DU-145 prostate was found to be 41.3 µM; in the experiment with HOP-62 NSCLC, 35.1 µM; in the experiment with IGROV1 ovarian, 26.5 µM; in the experiment on KM12 colon it was 6.68 µM; with MOLT-4 leukemia, 18.7 µM; in the experiment with NCI-H460 lung it was 35.1 µM. Moreover, the TGI is 14.3 µM in the experiment with SF-268 CNS, 27 µM in the experiment on SF-295 CNS, 23.8 µM with SNB-75 CNS and 9.14 µM in the experiment with TK-10 renal.
In the case of `CCOCCOC[C@H]1CCCN(c2ccnc3sc(C(N)=O)c(N)c23)C1`, the GI50 with DU-145 prostate is 73.1 µM; in the experiment with HOP-62 NSCLC, above 100 µM; in the experiment with IGROV1 ovarian it was 35 µM; with KM12 colon it was 36.6 µM; in the experiment on MOLT-4 leukemia, 10.1 µM; in the experiment with NCI-H460 lung, above 100 µM. In addition, the GI50 was 56.4 µM in the experiment on SF-268 CNS, 10.4 µM in the experiment with SF-295 CNS, 63.9 µM with SNB-75 CNS and above 100 µM with TK-10 renal. Further, the TGI with DU-145 prostate, in the experiment with HOP-62 NSCLC, in the experiment on IGROV1 ovarian, in the experiment with KM12 colon, in the experiment with MOLT-4 leukemia and in the experiment with NCI-H460 lung was above 100 µM in each case. The TGI with SF-268 CNS, with SF-295 CNS, with SNB-75 CNS and with TK-10 renal was above 100 µM in each case.
